Reference: patent US12208130B2, “Treatment of women affected with polycystic ovary syndrome” (INSTITUT NATIONAL DE LA SANTE ET DE LA RECHERCHE MEDICALE …, priority 2017, dated 2025)
Where a SMILES comes first, the peptide text is derived from it. [ ]: non-standard residue; d: D form. dPhe(4-Cl) = N[C@H](Cc1ccc(Cl)cc1)C(=O)O; d2Nal = N[C@H](Cc1ccc2ccccc2c1)C(=O)O; dCit = NC(=O)NCCC[C@@H](N)C(=O)O; d3Pal = N[C@H](Cc1cccnc1)C(=O)O

Test system: PAMH mice
Assay: Postnatal GnRH antagonist treatment in PAMH mice: estrous cyclicity, ovaries, hormone levels
Format: in vivo, mouse
Protocol: FIG. 6A-6G. Postnatal GnRH antagonist treatment of PAMH mice restores the PCOS-like neuroendocrine phenotype. (FIG. 6A) Schematic of experimental design whereby vaginal cytology (estrous cyclicity) in PAMH adult (P60-P90, n=5) was analyzed for 12 days before and after postnatal intraperitoneal (i.p.) injections with 0.5 mg Kg^−1 cetrorelix acetate (PAMH+GnRH antag). Injections were administered every 2 days over 12 days and, on the first diestrus at the end of the treatment, trunk blood was collected for hormonal analysis. (FIG. 6B) Representation of estrous cyclicity of a female PAMH mouse before postnatal GnRH antagonist treatment (no treatment) and during postnatal GnRH antagonist treatment (PAMH+GnRH antag). Days of treatment are denoted by arrows. (FIG. 6C) Quantitative analysis of the % of completed estrous cycles in control (prenatal PBS-treated, n=19), PAMH (prenatal AMH-treated, n=19), and PAMH mice postnatally treated with GnRH antagonist (PAMH+GnRH antag, n=5). The horizontal line in each scatter plot corresponds to the median value. The vertical line represents the 25th-75th percentile range. Comparisons between treatment groups were performed using Kruskal-Wallis test followed by Dunn's post hoc analysis test (control vs PAMH ***P<0.0001; control vs PAMH+GnRH antag, P>0.999; PAMH vs PAMH+GnRH antag, *P=0.015). (FIG. 6D) Scatter plot representing the percentage (%) of time spent in each estrous cycle. The horizontal line in each scatter plot corresponds to the median value. The vertical line represents the 25th-75th percentile range. The percentage (%) of time spent in each estrous cycle was quantified in control, PAMH and PAMH+GnRH antag animals groups, as described above. Comparisons between treatment groups were performed using Kruskal-Wallis test followed by Dunn's post hoc analysis test (M/D: control vs PAMH ***P<0.0001; control vs PAMH+GnRH antag, P>0.999; PAMH vs PAMH+GnRH antag, *P=0.0051; E: control vs PAMH ***P<0.0001; control vs PAMH+GnRH antag, P>0.999; PAMH vs PAMH+GnRH antag, *P=0.014; P: control vs PAMH ***P<0.0001; control vs PAMH+GnRH antag, P>0.999; PAMH vs PAMH+GnRH antag, **P=0.0007). In FIG. 6D, (●): control; light grey point: PAMH; “○”: PAMH+GnRH antagonist. (FIG. 6E) Representative photomicrographs of ovaries from adult (P60-P90) control, PAMH and PAMH+GnRH antag mice. Ovary sections (5 μm thick) were stained with haematoxylin-eosin. (FIG. 6F) Mean T levels were measured in diestrus adult control (n=7), PAMH (n=5) and PAMH+GnRH antag (n=5) animals. Comparisons between treatment groups were performed using One-way ANOVA and Tukey's multiple comparisons post-hoc test, F (2,14)=29.24, ***P<0.0001. (FIG. 6G) Mean LH levels were measured in diestrus adult control (n=9), PAMH (n=10) and PAMH+GnRH antag (n=5) animals. Comparisons between treatment groups were performed using One-way ANOVA and Tukey's multiple comparisons post-hoc test, F(2,21)=65.78, ***P<0.0001. Abbreviations: M/D, Metestrus/Diestrus; E, Estrus; P, Proestrus; A, atretic follicles; CL, corpora lutea; AF, antral follcicles.
(FIG. 10A) Schematic of experimental design whereby vaginal cytology (estrous cyclicity) in PAMH adult mice (P90, n=6) was analyzed during 3 months, before and after postnatal intraperitoneal (i.p.) injections with 0.05, 0.5 and 5 mg/Kg Cetrorelix acetate. The Y axis refers to the different stages of the estrous cycle: Metaestrus/Diestrus (M/D), Estrus (E) and Proestrus (P). The X axis represents the time-course of the experiments (days). Animals were injected i.p. every second day, for 12 days, with Cetrorelix acetate at the dose of 0.05 and 0.5 mg/Kg, and every day with Cetrorelix acetate at the dose of 5 mg/Kg. Tail-blood samples were collected for LH measurements twice before the beginning of the treatments, and at day 2 and 6 of each treatment as well as 4 days after the last injection (no treatment), that followed each administration period. […]

[1] = 0.5 mg/Kg i.p. every second day for 12 days

## CC(=O)N[C@H](Cc1ccc2ccccc2c1)C(=O)N[C@H](Cc1ccc(Cl)cc1)C(=O)N[C@H](Cc1cccnc1)C(=O)N[C@@H](CO)C(=O)N[C@@H](Cc1ccc(O)cc1)C(=O)N[C@H](CCCNC(N)=O)C(=O)N[C@@H](CC(C)C)C(=O)N[C@@H](CCCNC(=N)N)C(=O)N1CCC[C@H]1C(=O)N[C@H](C)C(N)=O [Cetrorelix acetate, Ac-D-2Nal-D-Phe(4-Cl)-D-3Pal-Ser-Tyr-D-Cit-Leu-Arg-Pro-D-Ala-NH2] (Ac-[d2Nal][dPhe(4-Cl)][d3Pal]SY[dCit]LRP[dA]-NH2)
0.05 mg/Kg i.p. every second day
  serum LH levels of PAMH mice: significantly more elevated than in Control animals
0.5 mg/Kg every second day, diestrus, end of treatment
  LH pulsatility in PAMH animals: normalized the LH pulsatility
[1]
  LH levels of PAMH mice: normalized
  estrous cyclicity of PAMH mice: restored
0.5 mg/Kg i.p. every second day for 12 days, diestrus
  T levels of PAMH mice: normalized
0.5 mg/Kg i.p. every two days for 12 days
  ovarian morphology of PAMH mice: restored
0.5 mg/Kg injected every 48 hours
  ovulation in PAMH animals: restored ovulation
5 mg/Kg i.p. daily
  serum LH levels of PAMH mice: significantly suppressed
After discontinuation of treatment, independently of dose
  reversibility of effects on LH secretion: reversible a few days after discontinuation of treatment
